According to the NIST ThermoML archive (doi:10.1021/je500772z):
± gives the expanded uncertainty stated by the source.

Assay: osmotic coefficient (dimensionless); mn = molality of the nth substance listed, in mol/kg
Conditions: 298.15 K, Liquid, isopiestic method

CC(C)[C@H](N)C(=O)[O-].CCCCn1cc[n+](C)c1 [1-butyl-3-methylimidazolium L-valinate] + O
Conditions | osmotic coefficient
m1 = 0 | 1 ± 0.0004
m1 = 0.013 | 0.9595 ± 0.0016
m1 = 0.0202 | 0.9384 ± 0.0024
m1 = 0.0421 | 0.923 ± 0.003
m1 = 0.0582 | 0.9121 ± 0.0034
m1 = 0.0723 | 0.9019 ± 0.0038
m1 = 0.1086 | 0.8899 ± 0.0043
m1 = 0.1458 | 0.8851 ± 0.0045
m1 = 0.1932 | 0.8794 ± 0.0047
m1 = 0.2434 | 0.8759 ± 0.0048
m1 = 0.2848 | 0.879 ± 0.0047
m1 = 0.3283 | 0.8828 ± 0.0045
m1 = 0.4013 | 0.8908 ± 0.0042
m1 = 0.4421 | 0.8986 ± 0.0039
m1 = 0.5035 | 0.9098 ± 0.0035
m1 = 0.576 | 0.9279 ± 0.0028

CCCCn1cc[n+](C)c1.NCC(=O)[O-] [1-butyl-3-methylimidazolium glycinate] + O
Conditions | osmotic coefficient
m1 = 0 | 1 ± 0.004
m1 = 0.0179 | 0.941 ± 0.004
m1 = 0.0266 | 0.9408 ± 0.004
m1 = 0.0509 | 0.9167 ± 0.004
m1 = 0.0737 | 0.9076 ± 0.004
m1 = 0.0978 | 0.8916 ± 0.004
m1 = 0.1314 | 0.8739 ± 0.004
m1 = 0.1811 | 0.8658 ± 0.004
m1 = 0.2166 | 0.853 ± 0.004
m1 = 0.263 | 0.8465 ± 0.004
m1 = 0.3181 | 0.8432 ± 0.004
m1 = 0.3693 | 0.8407 ± 0.004
m1 = 0.4305 | 0.8405 ± 0.004
m1 = 0.5055 | 0.8474 ± 0.004
m1 = 0.5791 | 0.8523 ± 0.004
m1 = 0.6439 | 0.8526 ± 0.004

CCCCn1cc[n+](C)c1.C[C@H](N)C(=O)[O-] [3-butyl-1-methyl-1H-imidazolium L-alaninate] + O
Conditions | osmotic coefficient
m1 = 0 | 1 ± 0.0004
m1 = 0.0134 | 0.9617 ± 0.0015
m1 = 0.0183 | 0.9405 ± 0.0023
m1 = 0.0416 | 0.9262 ± 0.0029
m1 = 0.0612 | 0.9103 ± 0.0035
m1 = 0.0821 | 0.9008 ± 0.0038
m1 = 0.109 | 0.8865 ± 0.0044
m1 = 0.1518 | 0.8725 ± 0.0049
m1 = 0.1962 | 0.8661 ± 0.0052
m1 = 0.242 | 0.8654 ± 0.0052
m1 = 0.2834 | 0.863 ± 0.0053
m1 = 0.3192 | 0.8594 ± 0.0054
m1 = 0.3741 | 0.8633 ± 0.0053
m1 = 0.4453 | 0.8672 ± 0.0051
m1 = 0.5047 | 0.8715 ± 0.005
m1 = 0.5755 | 0.8812 ± 0.0046

CC(C)C[C@H](N)C(=O)[O-].CCCCn1cc[n+](C)c1 [1-butyl-3-methylimidazolium L-leucinate] + O
Conditions | osmotic coefficient
m1 = 0 | 1 ± 0.0005
m1 = 0.0117 | 0.9528 ± 0.0019
m1 = 0.0184 | 0.9362 ± 0.0025
m1 = 0.0387 | 0.9254 ± 0.0029
m1 = 0.0649 | 0.9104 ± 0.0035
m1 = 0.0795 | 0.9093 ± 0.0035
m1 = 0.1123 | 0.9025 ± 0.0038
m1 = 0.1532 | 0.8977 ± 0.004
m1 = 0.1914 | 0.8982 ± 0.0039
m1 = 0.2319 | 0.9005 ± 0.0039
m1 = 0.2687 | 0.9029 ± 0.0038
m1 = 0.3111 | 0.9101 ± 0.0035
m1 = 0.3711 | 0.9187 ± 0.0031
m1 = 0.4373 | 0.9255 ± 0.0029
m1 = 0.4915 | 0.9328 ± 0.0026
m1 = 0.5503 | 0.9423 ± 0.0022
